According to ChEMBL document CHEMBL2424533, “Design and regioselective synthesis of trifluoromethylquinolone derivatives as potent antimicrobial agents” (2013):
Values after ≈ are worked out from the molar mass of the structure shown. Active and inactive are the calls of the source. The rule behind the calls is not given here.

How the values were obtained:
Pseudomonas aeruginosa [1] = experiment: Antimicrobial activity against Pseudomonas aeruginosa MTCC 4673 at 100 ug/mL after 12 hrs by well diffusion method; format: functional; conditions: for zone of inhibition at 100 µg/mL: MTCC 4673, 12 h, read-out: DIZ
Candida albicans [2] = experiment: Antimicrobial activity against Candida albicans MTCC 183 at 50 ug/mL after 12 hrs by well diffusion method; format: functional; conditions: for zone of inhibition at 50 µg/mL: MTCC 183, 12 h, read-out: DIZ
[3] = tested on: Mycolicibacterium smegmatis; experiment: Antimicrobial activity against Mycobacterium smegmatis MTCC 943 at 50 ug/mL after 12 hrs by well diffusion method; format: functional; conditions: for zone of inhibition at 50 µg/mL: MTCC 943, 12 h, read-out: DIZ
Candida albicans [4] = experiment: Antimicrobial activity against Candida albicans MTCC 183 at 100 ug/mL after 12 hrs by well diffusion method; format: functional; conditions: for zone of inhibition at 100 µg/mL: MTCC 183, 12 h, read-out: DIZ
[5] = tested on: Mycolicibacterium smegmatis; experiment: Antimicrobial activity against Mycobacterium smegmatis MTCC 943 at 100 ug/mL after 12 hrs by well diffusion method; format: functional; conditions: for zone of inhibition at 100 µg/mL: MTCC 943, 12 h, read-out: DIZ
Staphylococcus aureus [6] = conditions: MTCC 3160, 50 ug/mL
Description: Antimicrobial activity against Staphylococcus aureus MTCC 3160 at 50 ug/mL after 12 hrs by well diffusion method

Salmonella typhimurium [7] = experiment: Antimicrobial activity against Salmonella typhimurium MTCC 3732 at 50 ug/mL after 12 hrs by well diffusion method; format: functional; conditions: for diameter of the inhibition zone (DIZ): Salmonella enterica subsp. enterica serovar Typhimurium
Staphylococcus aureus [8] = experiment: Antimicrobial activity against Staphylococcus aureus MTCC 3160 at 100 ug/mL after 12 hrs by well diffusion method; format: functional; conditions: for zone of inhibition at 100 µg/mL: MTCC 3160, 12 h, read-out: DIZ
Salmonella typhimurium [9] = experiment: Antimicrobial activity against Salmonella typhimurium MTCC 3732 at 100 ug/mL after 12 hrs by well diffusion method; format: functional; conditions: for diameter of the inhibition zone (DIZ): Salmonella enterica subsp. enterica serovar Typhimurium
Pseudomonas aeruginosa [10] = experiment: Antimicrobial activity against Pseudomonas aeruginosa MTCC 4673 at 50 ug/mL after 12 hrs by well diffusion method; format: functional; conditions: for zone of inhibition at 50 µg/mL: MTCC 4673, 12 h, read-out: DIZ
Pseudomonas aeruginosa [11] = experiment: Antimicrobial activity against Pseudomonas aeruginosa MTCC 4673 after 12 hrs by well diffusion method; format: functional; conditions: MTCC 4673, 12 h
Salmonella typhimurium [12] = experiment: Antimicrobial activity against Salmonella typhimurium MTCC 3732 after 12 hrs by well diffusion method; format: functional, Salmonella enterica subsp. enterica serovar Typhimurium; conditions: Salmonella enterica, MTCC 3732, 12 h
Candida albicans [13] = experiment: Antimicrobial activity against Candida albicans MTCC 183 after 12 hrs by well diffusion method; format: functional; conditions: MTCC 183, 12 h
[14] = tested on: Mycolicibacterium smegmatis; experiment: Antimicrobial activity against Mycobacterium smegmatis MTCC 943 after 12 hrs by well diffusion method; format: functional; conditions: MTCC 943, 12 h
Staphylococcus aureus [15] = experiment: Antimicrobial activity against Staphylococcus aureus MTCC 3160 after 12 hrs by well diffusion method; format: functional; conditions: MTCC 3160, 12 h
[16] = Salmonella enterica, MTCC 3732, 12 h, read-out: DIZ

| SMILES | MIC (Pseudomonas aeruginosa [11]) [µg/mL] | MIC (Salmonella typhimurium [12]) [µg/mL] | MIC (Candida albicans [13]) [µg/mL] | MIC [14] [µg/mL] | MIC (Staphylococcus aureus [15]) [µg/mL] | diameter of the inhibition zone (DIZ) (Pseudomonas aeruginosa [1]) | diameter of the inhibition zone (DIZ) (Candida albicans [2]) | diameter of the inhibition zone (DIZ) [3] | diameter of the inhibition zone (DIZ) (Candida albicans [4]) | diameter of the inhibition zone (DIZ) [5] | DIZ (Staphylococcus aureus [6]) | diameter of the inhibition zone (DIZ) (Salmonella typhimurium [7]) | diameter of the inhibition zone (DIZ) (Staphylococcus aureus [8]) | diameter of the inhibition zone (DIZ) (Salmonella typhimurium [9]) | diameter of the inhibition zone (DIZ) (Pseudomonas aeruginosa [10]) | zone of inhibition at 100 µg/mL (Candida albicans [4]) [mm] | zone of inhibition at 100 µg/mL (Staphylococcus aureus [8]) [mm] | zone of inhibition at 100 µg/mL (Pseudomonas aeruginosa [1]) [mm] | zone of inhibition at 50 µg/mL [3] [mm] | zone of inhibition at 100 µg/mL [5] [mm] | other results |
| --- | --- | --- | --- | --- | --- | --- | --- | --- | --- | --- | --- | --- | --- | --- | --- | --- | --- | --- | --- | --- | --- |
| C#CCn1cc(C(=O)O)c(=O)c2cccc(C(F)(F)F)c21 | – | – | – | – | – | inactive | inactive | inactive | inactive | inactive | inactive | inactive | inactive | inactive | inactive | – | – | – | – | – | – |
| O=C(O)c1cn(Cc2ccc(Cl)cc2Cl)c2cc(C(F)(F)F)ccc2c1=O | > 100 | > 100 | 50 (≈ 120 µM) | > 100 | 100 (≈ 240 µM) | inactive | inactive | inactive | – | inactive | inactive | inactive | – | inactive | inactive | 7 | 10 | – | – | – | – |
| C#CCn1cc(C(=O)NN)c(=O)c2cccc(C(F)(F)F)c21 | – | – | – | – | – | inactive | inactive | inactive | inactive | inactive | inactive | inactive | inactive | inactive | inactive | – | – | – | – | – | – |

Continued, in another order:

| MIC (Pseudomonas aeruginosa [11]) [µg/mL] | MIC (Salmonella typhimurium [12]) [µg/mL] | MIC (Candida albicans [13]) [µg/mL] | MIC [14] [µg/mL] | MIC (Staphylococcus aureus [15]) [µg/mL] | SMILES | diameter of the inhibition zone (DIZ) (Pseudomonas aeruginosa [1]) | diameter of the inhibition zone (DIZ) (Candida albicans [2]) | diameter of the inhibition zone (DIZ) [3] | diameter of the inhibition zone (DIZ) (Candida albicans [4]) | diameter of the inhibition zone (DIZ) [5] | DIZ (Staphylococcus aureus [6]) | diameter of the inhibition zone (DIZ) (Salmonella typhimurium [7]) | diameter of the inhibition zone (DIZ) (Staphylococcus aureus [8]) | diameter of the inhibition zone (DIZ) (Salmonella typhimurium [9]) | diameter of the inhibition zone (DIZ) (Pseudomonas aeruginosa [10]) | zone of inhibition at 100 µg/mL (Candida albicans [4]) [mm] | zone of inhibition at 100 µg/mL (Staphylococcus aureus [8]) [mm] | zone of inhibition at 100 µg/mL (Pseudomonas aeruginosa [1]) [mm] | zone of inhibition at 50 µg/mL [3] [mm] | zone of inhibition at 100 µg/mL [5] [mm] | other results |
| --- | --- | --- | --- | --- | --- | --- | --- | --- | --- | --- | --- | --- | --- | --- | --- | --- | --- | --- | --- | --- | --- |
| 25 (≈ 58.1 µM) | > 100 | 100 (≈ 232 µM) | 25 (≈ 58.1 µM) | 100 (≈ 232 µM) | NNC(=O)c1cn(Cc2ccc(Cl)cc2Cl)c2cc(C(F)(F)F)ccc2c1=O | – | inactive | – | – | – | inactive | inactive | – | inactive | – | 7 | 8 | 8 | 9 | 9 | zone of inhibition at 50 µg/mL (Pseudomonas aeruginosa [10]): 8 mm |
| 25 (≈ 60.1 µM) | > 100 | 50 (≈ 120 µM) | 25 (≈ 60.1 µM) | 100 (≈ 240 µM) | O=C(O)c1cn(Cc2ccc(Cl)cc2Cl)c2c(C(F)(F)F)cccc2c1=O | – | – | – | – | – | inactive | inactive | – | inactive | – | 9 | 9 | 14 | 11 | 12 | zone of inhibition at 50 µg/mL (Candida albicans [2]): 7 mm; zone of inhibition at 50 µg/mL (Pseudomonas aeruginosa [10]): 13.6 mm |
| > 100 | 25 (≈ 84.7 µM) | 25 (≈ 84.7 µM) | 100 (≈ 339 µM) | 100 (≈ 339 µM) | C#CCn1cc(C(=O)O)c(=O)c2ccc(C(F)(F)F)cc21 | inactive | – | inactive | – | – | inactive | – | – | – | inactive | 12 | 10 | – | – | 7 | zone of inhibition at 50 µg/mL (Candida albicans [2]): 12 mm; zone of inhibition at 50 µg/mL (Salmonella typhimurium [7]; [16]): 8 mm; zone of inhibition at 100 µg/mL (Salmonella typhimurium [9]; [16]): 8 mm |
